Results from PubChem BioAssay AID330 (DTP/NCI, 2004).
Values joined by “and” are separate entries in the source; they are usually repeats but may differ in a detail not shown here. Equal values may be shown once. Toxic doses and inconclusive results are not listed. The calls were made as follows: active = survival T/C of 150% or more; inactive = T/C below 125% in these data.

System: P388 leukemia ip, CD2F1 mice, survival T/C
Assay: NCI In Vivo Anticancer Drug Screen. Data for tumor model P388 Leukemia (intraperitoneal) in CD2F1 (CDF1) mice
Settings: endpoint: median survival time, higher = longer survival
Summary of the method: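 Mice carrying the transplanted tumor received test compound or vehicle. Survival was recorded in each group, and the value is the treated-group measurement divided by that of the vehicle-treated control group.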

[1] = dose: 50.0 mg/kg/injection, schedule: Q01DX005 (ip), vehicle: saline with Tween-80
[2] = dose: 100.0 mg/kg/injection, schedule: Q01DX005 (ip), vehicle: saline with Tween-80
[3] = dose: 12.5 mg/kg/injection, schedule: Q01DX009 (ip), vehicle: saline with Tween-80
[4] = dose: 200.0 mg/kg/injection, schedule: Q01DX005 (ip), vehicle: saline with Tween-80

Measured: T/C

O=C(NC(=S)c1ccccc1)Nc1ccc(Cl)c(Cl)c1
inactive: dose: 8.0 mg/kg/injection, schedule: Q01DX009 (ip), vehicle: saline with Tween-80 100 % of control | dose: 16.0 mg/kg/injection, schedule: Q01DX009 (ip), vehicle: saline with Tween-80 99 % of control | dose: 32.0 mg/kg/injection, schedule: Q01DX009 (ip), vehicle: saline with Tween-80 87 % of control

COCC1(C)CCCC2(C)C3=C(CCC(OC)C3)CCC12 (stereo not drawn)
inactive: dose: 100.0 mg/kg/injection, schedule: Q01DX001 (ip), vehicle: saline 99 % of control | dose: 200.0 mg/kg/injection, schedule: Q01DX001 (ip), vehicle: saline 96 % of control | dose: 400.0 mg/kg/injection, schedule: Q01DX001 (ip), vehicle: saline 93 % of control

CSC(=S)N/N=C/c1nccc(-c2ccccc2)c1C
inactive: dose: 50.0 mg/kg/injection, schedule: Q01DX009 (ip), vehicle: saline 97 % of control | dose: 100.0 mg/kg/injection, schedule: Q01DX009 (ip), vehicle: saline 108 % of control | dose: 200.0 mg/kg/injection, schedule: Q01DX009 (ip), vehicle: saline 96 % of control

CCCCCC(C1SC(=S)NC1=O)C1SC(=S)NC1=O (stereo not drawn)
inactive: [1] 90 % of control | [2] 106 % of control

O=C(O)C[N-]CC(=O)O.OO.[O]=[V]
inactive: dose: 3.75 mg/kg/injection, schedule: Q01DX005 (ip), vehicle: saline with Tween-80 102 % of control | dose: 7.5 mg/kg/injection, schedule: Q01DX005 (ip), vehicle: saline with Tween-80 105 % of control | dose: 15.0 mg/kg/injection, schedule: Q01DX005 (ip), vehicle: saline with Tween-80 112 % of control | dose: 30.0 mg/kg/injection, schedule: Q01DX005 (ip), vehicle: saline with Tween-80 120 % of control

Cc1ccccc1-n1c(=S)n(-c2ccc(Cl)cc2)c2nc3ccccc3nc1/c2=N/Nc1cc(Cl)ccc1Cl
inactive: [1] 95 % of control | [2] 92 % of control

O=P(c1ccccc1)(c1ccccc1)c1ccccc1.O=P(c1ccccc1)(c1ccccc1)c1ccccc1.O=P(c1ccccc1)(c1ccccc1)c1ccccc1.O=P(c1ccccc1)(c1ccccc1)c1ccccc1.[Cr+3].[O-][Cl+3]([O-])([O-])O
inactive: dose: 100.0 mg/kg/injection, schedule: Q04DX003 (ip), vehicle: saline + Tween-80 + alcohol 101 % of control | dose: 200.0 mg/kg/injection, schedule: Q04DX003 (ip), vehicle: saline + Tween-80 + alcohol 100 % of control

COc1cc(C)c2c(=O)c3c(oc2c1)C(=O)c1c(O)c(OC)cc(O)c1C3=O
inactive: [3] 115 % of control | dose: 25.0 mg/kg/injection, schedule: Q01DX009 (ip), vehicle: saline with Tween-80 108 % of control | dose: 50.0 mg/kg/injection, schedule: Q01DX009 (ip), vehicle: saline with Tween-80 114 % of control | dose: 100.0 mg/kg/injection, schedule: Q01DX009 (ip), vehicle: saline with Tween-80 115 % of control | dose: 200.0 mg/kg/injection, schedule: Q01DX009 (ip), vehicle: saline with Tween-80 103 % of control

Cc1ccc(S(=O)(=O)NC(=O)C#CCOC2CCCCO2)cc1 (stereo not drawn)
inactive: [1] 103 % of control and 122 % of control | [2] 111 % of control and 112 % of control | [4] 112 % of control and 123 % of control

C=CCNC(=S)N\N=C/C(/C=C/c1ccccc1)=N\NC(=S)NCC=C
inactive: dose: 100.0 mg/kg/injection, schedule: Q04DX002 (ip), vehicle: Klucel (hydroxypropylcellulose) (HPC) 103 % of control | dose: 200.0 mg/kg/injection, schedule: Q04DX002 (ip), vehicle: Klucel (hydroxypropylcellulose) (HPC) 91 % of control | dose: 400.0 mg/kg/injection, schedule: Q04DX002 (ip), vehicle: Klucel (hydroxypropylcellulose) (HPC) 91 % of control

COc1ccc(C2=NN(c3ccccc3)C(=O)/C2=C(/SC)N2CC2)cc1
inactive: dose: 100.0 mg/kg/injection, schedule: Q04DX003 (ip), vehicle: Klucel (hydroxypropylcellulose) (HPC) 99 % of control | dose: 200.0 mg/kg/injection, schedule: Q04DX003 (ip), vehicle: Klucel (hydroxypropylcellulose) (HPC) 91 % of control | dose: 400.0 mg/kg/injection, schedule: Q04DX003 (ip), vehicle: Klucel (hydroxypropylcellulose) (HPC) 102 % of control

Clc1ccc(-c2csc3cccc[n+]23)cc1
inactive: dose: 12.5 mg/kg/injection, schedule: Q01DX009 (ip), vehicle: Klucel (hydroxypropylcellulose) (HPC) 103 % of control | dose: 25.0 mg/kg/injection, schedule: Q01DX009 (ip), vehicle: Klucel (hydroxypropylcellulose) (HPC) 100 % of control | dose: 50.0 mg/kg/injection, schedule: Q01DX009 (ip), vehicle: Klucel (hydroxypropylcellulose) (HPC) 103 % of control

NC(=S)N/N=C/c1ccccc1
inactive: dose: 12.5 mg/kg/injection, schedule: Q04DX003 (ip), vehicle: Klucel (hydroxypropylcellulose) (HPC) 116 % of control | dose: 25.0 mg/kg/injection, schedule: Q04DX003 (ip), vehicle: Klucel (hydroxypropylcellulose) (HPC) 109 % of control

CC1=C/C(=C(\c2cc(C)c(O)c(C(=O)O)c2)c2c(Cl)cccc2Cl)C=C(C(=O)O)C1=O
inactive: [1] 103 % of control | [2] 100 % of control | [4] 100 % of control

O=C(Oc1ccc(OC(=O)c2ccc([N+](=O)[O-])cc2)cc1)c1ccccc1
inactive: dose: 50.0 mg/kg/injection, schedule: Q04DX003 (ip), vehicle: saline 101 % of control | dose: 100.0 mg/kg/injection, schedule: Q01DX001 (ip), vehicle: Klucel (hydroxypropylcellulose) (HPC) 95 % of control | dose: 100.0 mg/kg/injection, schedule: Q04DX003 (ip), vehicle: saline 95 % of control | dose: 200.0 mg/kg/injection, schedule: Q01DX001 (ip), vehicle: Klucel (hydroxypropylcellulose) (HPC) 95 % of control | dose: 200.0 mg/kg/injection, schedule: Q04DX003 (ip), vehicle: saline 102 % of control | dose: 400.0 mg/kg/injection, schedule: Q01DX001 (ip), vehicle: Klucel (hydroxypropylcellulose) (HPC) 101 % of control | dose: 400.0 mg/kg/injection, schedule: Q04DX003 (ip), vehicle: saline 96 % of control

COc1ccc(Br)c(C(=O)N2CCc3ccccc32)c1OS(=O)(=O)c1ccc(C)cc1
inactive: dose: 25.0 mg/kg/injection, schedule: Q01DX009 (ip), vehicle: distilled water + Tween-80 98 % of control | dose: 50.0 mg/kg/injection, schedule: Q01DX009 (ip), vehicle: distilled water + Tween-80 100 % of control | dose: 100.0 mg/kg/injection, schedule: Q01DX009 (ip), vehicle: distilled water + Tween-80 91 % of control | dose: 200.0 mg/kg/injection, schedule: Q01DX009 (ip), vehicle: distilled water + Tween-80 89 % of control | dose: 400.0 mg/kg/injection, schedule: Q01DX009 (ip), vehicle: distilled water + Tween-80 95 % of control

CN(C)C1=CC(N(C)C)=NC12C(=N)N(C)C(=O)N(C)C2=O (stereo not drawn)
inactive: dose: 50.0 mg/kg/injection, schedule: Q01DX005 (ip), vehicle: water 104 % of control | dose: 100.0 mg/kg/injection, schedule: Q01DX005 (ip), vehicle: water 104 % of control | dose: 200.0 mg/kg/injection, schedule: Q01DX005 (ip), vehicle: water 108 % of control

Cn1c(NC(=O)C(F)(F)F)cc(=O)n(C)c1=O
inactive: [1] 102 % of control | [2] 95 % of control | [4] 101 % of control

Cc1nn(C(=O)c2cccnc2)c(-c2ccccc2)c1N=Nc1ccc(S(=O)(=O)N=C(N)N)cc1
inactive: dose: 3.12 mg/kg/injection, schedule: Q01DX005 (ip), vehicle: saline with Tween-80 98 % of control | dose: 6.25 mg/kg/injection, schedule: Q01DX005 (ip), vehicle: saline with Tween-80 95 % of control | dose: 12.5 mg/kg/injection, schedule: Q01DX005 (ip), vehicle: saline with Tween-80 105 % of control and 86 % of control | [1] 89 % of control

COc1c2c(c(O)c3c1C(=O)c1cccc(O)c1C3=O)C(OC1CC(N)C(O)C(C)O1)CC(O)(C(C)=O)C2 (stereo not drawn)
inactive: dose: 12.5 mg/kg/injection, schedule: Q04DX003 (ip), vehicle: water 118 % of control | dose: 25.0 mg/kg/injection, schedule: Q04DX003 (ip), vehicle: water 118 % of control | dose: 50.0 mg/kg/injection, schedule: Q04DX003 (ip), vehicle: water 100 % of control

C[Si](C)(C)CSCC#N
inactive: dose: 100.0 mg/kg/injection, schedule: Q01DX001 (ip), vehicle: saline with Tween-80 98 % of control | dose: 200.0 mg/kg/injection, schedule: Q01DX001 (ip), vehicle: saline with Tween-80 107 % of control

O=C1C(Cl)=CC(=NS(=O)(=O)c2ccccc2)C=C1Cl
inactive: dose: 3.13 mg/kg/injection, schedule: Q01DX009 (ip), vehicle: saline with Tween-80 100 % of control | dose: 6.25 mg/kg/injection, schedule: Q01DX009 (ip), vehicle: saline with Tween-80 105 % of control | dose: 6.25 mg/kg/injection, schedule: Q04DX003 (ip), vehicle: saline with Tween-80 95 % of control | [3] 120 % of control

CC(C)[Si]1(C(C)C)N([Si](C)(C)F)[Si](C(C)C)(C(C)C)N1[Si](C)(C)F
inactive: dose: 60.0 mg/kg/injection, schedule: Q01DX005 (ip), vehicle: saline 97 % of control | dose: 120.0 mg/kg/injection, schedule: Q01DX005 (ip), vehicle: saline 87 % of control | dose: 240.0 mg/kg/injection, schedule: Q01DX005 (ip), vehicle: saline 100 % of control

C/C(N=NC(=S)N1CCCCC1C)=C1\C=CC=CN1O (stereo not drawn)
inactive: [1] 110 % of control | [2] 97 % of control | [4] 104 % of control
